# Source: patent US20190389843A1, “PYRROLE mTORC INHIBITORS AND USES THEREOF” (Navitor Pharmaceuticals, Inc., priority 2016, published 2019)
# Structures can show the parent of a compound that is named as a salt.
# Assays:
# Type in all cases: cell-based
# [1] = test system: pS6K1 in MCF7 (measure of mTORC1 activity); assay: AlphaLISA Ultra pS6K1 assay; settings: Homo sapiens, MCF7, 2 h, MCF-7 cells, 2 hours compound incubation
# Procedure, shortened: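 MCF7 cells, refreshed medium 2 h, treated with compound 2 h at 0.5% DMSO final, then lysed. Phospho-S6K1 in lysates detected by AlphaLISA Ultra (acceptor beads 2 h, donor beads 2 h), read as Alpha signal on a multimode reader.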
# [2] = test system: Glucose uptake in MCF-7 cells; assay: Radioactive glucose uptake in MCF-7 cells; settings: Homo sapiens, MCF7, 3H-2DG uptake, 20 mins
# Procedure: Example 157: Radioactive Glucose Uptake in MCF-7 Cells
# Assay Protocol • 1. Seed approximately 12,000 MCF-7 cells cultured without insulin per well in 96-well plates (BIOCOAT, #356690) and let the cells sit in hood for 30 min. (Cell culture medium: DMEM+10% FBS). • 2. Put the cell culture plates in TC incubator (5% CO2, 37° C.) and incubate overnight. • 3. Take out the cell plates and wash with prewarmed KRH buffer (37° C.) three times using BioTek plate washer. (KRH buffer preparation: 136 mM NaCl, 4.7 mM KCl, 1.25 mM MgCl2, 1.2 mM CaCl2, 20 mM HEPES, 0.1 mg/ml sodium pyruvate, 0.1% BSA, pH 7.4). • 4. Compound preparation and treatment: • a) Add 12 ul compound stock in 100% DMSO to the first column of Echo LDV plate • b) Serially dilute the compound solution in 100% DMSO (4 uL+8 uL DMSO) using Bravo for 9 doses • c) Dispense 350 nL compounds using Echo to the working plate • d) i) Without compound preincubation condition, dispense 116 uL KRH buffer containing tritiated 2-deoxy-D-glucose (3H-2DG) and 2-deoxy-D-glucose (2DG) to the working plate and mix. • ii. With compound preincubation condition, dispense 110 uL KRH buffer only to the working plates and mix • e) Keep the compound working plate at 37° C. incubator until use • 5. Discard the KRH buffer (cells were kept in KRH buffer for 10-15 min before 2-DG addition) and transfer 100 uL compound working solution out to the cell culture plate using Bravo. Incubate for 20 mins at 37° C. (2DG final at 0.2 mM, 3H-2DG at 10 uCi/mL). • 6. Add prewarmed 50 uL KRH buffer (37° C.) containing 60 mM cold 2DG to the wells to stop the 2DG uptake using Multidrop combi • 7. Wash the cells with prewarmed PBS three times using BioTek plate washer • 8. Add 50 uL lysis buffer (0.1 M NaOH) into the assay plate to lyse the cells using Bravo and shake at 800 rpm for 30 min. • 9. Mix and transfer 20 uL lysate to a new white plate (Corning, #3610) and add 200 uL MicroScint-20 using Bravo • 10. Shake the plate at 1000 rpm for 30 min and count in a MicroBeta plate reader.
# [3] = test system: pAKT in MCF7 (measure of mTORC2 activity); assay: AlphaLISA Ultra pAKT assay; settings: Homo sapiens, MCF7, 2 h, MCF-7 cells, 2 hours compound incubation
# Procedure, shortened: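 MCF7 cells, 16,000-20,000 per well, treated with compound for 2 h at 0.5% final DMSO, then lysed. Phospho-AKT, as a readout of mTORC2 activity, measured by AlphaLISA Ultra with acceptor beads and then donor beads, 2 h each.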
Structure (SMILES),IC50 [1] [nM],IC50 [2] [nM],IC50 [3] [nM]
Cc1c(CN2CCN(c3ccccc3C#N)CC2)cc(C(=O)N2CCN(c3ccc(F)cn3)CC2)n1C [Example I-63],10 to 1000,10 to 1000,> 300
Cc1c(CN2CCN(c3ccccc3Cl)CC2)cc(C(=O)N2CCN(c3ccc(F)cn3)CC2)n1C [Example I-72],10 to 1000,10 to 1000,> 300
"Cc1c(CN2CCN(c3ccccc3Cl)CC2)cc(C(=O)N2CCn3c(cc4ccccc43)C2)n1C [Example I-76, (4-((4-(2-chlorophenyl)piperazin-1-yl)methyl)-1,5-dimethyl-1H-pyrrol-2-yl)(3,4-dihydropyrazino[1,2-a]indol-2(1H)-yl)methanone]",1000 to 3000,> 3000,> 5000
Cn1cc(CN2CCN(c3ccc(F)cc3Cl)CC2)cc1C(=O)N1CCN(c2ccc(F)cc2)CC1 [Example I-127],1000 to 3000,–,> 10000
Cn1cc(CN2CCC3(CCN(c4ccccc4Cl)C3)C2)cc1C(=O)N1CCN(c2ccc(F)cc2)CC1 (stereo not shown) [Example I-128],1000 to 3000,–,> 10000
Cn1cc(CNC2CCN(c3ccccc3Cl)CC2)cc1C(=O)N1CCN(c2ccc(F)cc2)CC1 [Example I-129],1000 to 3000,–,> 10000
Cn1cc(CN2CCC(Nc3ccccc3Cl)CC2)cc1C(=O)N1CCN(c2ccc(F)cc2)CC1 [Example I-130],1000 to 3000,–,> 10000
Cn1cc(CN2CC3CN(c4ccccc4Cl)CC3C2)cc1C(=O)N1CCN(c2ccc(F)cc2)CC1 (stereo not shown) [Example I-131],3000 to 10000,–,> 10000
"Cn1cc(CN2CCN(c3ccccc3Cl)CC2)cc1C(=O)N1CCN(c2cc(F)c(F)c(F)c2)CC1 [Example I-132, (4-((4-(2-Chlorophenyl)piperazin-1-yl)methyl)-1-methyl-1H-pyrrol-2-yl)(4-(3,4,5-trifluorophenyl)piperazin-1-yl)methanone trifluoroacetate salt]",3000 to 10000,–,> 10000
"Cc1c(CN2CCN(c3ccccc3Cl)CC2)cc(C(=O)N2CCN(c3ccccc3)CC2)n1C [Example I-133, (4-((4-(2-Chlorophenyl)piperazin-1-yl)methyl)-1,5-dimethyl-1H-pyrrol-2-yl)(4-phenylpiperazin-1-yl)methanone]",10 to 1000,–,> 1000
"Cc1ccccc1N1CCN(Cc2cc(C(=O)N3CCN(c4ccccc4)CC3)n(C)c2)CC1 [Example I-134, (1-methyl-4-((4-o-tolylpiperazin-1-yl)methyl)-1H-pyrrol-2-yl)(4-phenylpiperazin-1-yl)methanone]",1000 to 3000,–,> 3000
Cn1cc(CN2CCN(c3ccccc3Cl)CC2)cc1C(=O)N1CCN(c2ccc(F)cc2)CC1 [Example I-135],1000 to 3000,–,> 3000
"C[C@H]1CN(c2ccccc2)CCN1C(=O)c1cc(CN2CCN(c3ccccc3Cl)CC2)cn1C [Example I-136, (S)-(4-((4-(2-chlorophenyl)piperazin-1-yl)methyl)-1-methyl-1H-pyrrol-2-yl)(2-methyl-4-phenylpiperazin-1-yl)methanone]",1000 to 3000,–,> 3000
"C[C@@H]1CN(c2ccccc2)CCN1C(=O)c1cc(CN2CCN(c3ccccc3Cl)CC2)cn1C [Example I-137, (R)-(4-((4-(2-chlorophenyl)piperazin-1-yl)methyl)-1-methyl-1H-pyrrol-2-yl)(2-methyl-4-phenylpiperazin-1-yl)methanone]",3000 to 10000,–,> 10000
"Cn1cc(CN2CCN(c3ccccc3Cl)CC2)cc1C(=O)N1CCN(c2cccc(C#N)c2)CC1 [Example I-138, 3-(4-(4-((4-(2-chlorophenyl)piperazin-1-yl)methyl)-1-methyl-1H-pyrrole-2-carbonyl)piperazin-1-yl)benzonitrile]",1000 to 3000,–,> 3000
COCCn1cc(CN2CCN(c3ccccc3C(F)(F)F)CC2)cc1C(=O)N1CCN(c2ccccc2)CC1 [Example I-139],3000 to 10000,–,> 10000
COCCn1cc(CN2CCN(c3ccccc3Cl)CC2)cc1C(=O)N1CCN(c2ccc(F)cc2)CC1 [Example I-140],1000 to 3000,–,> 10000
COCCn1cc(CN2CCN(c3ccccc3Cl)CC2)cc1C(=O)N1CCN(c2ccccc2F)CC1 [Example I-141],3000 to 10000,–,> 10000
O=C(c1cc(CN2CCN(c3ccccc3Cl)CC2)cn1CCO)N1CCN(c2ccccc2)CC1 [Example I-142],1000 to 3000,–,> 3000
CCn1cc(CN2CCN(c3ccccc3Cl)CC2)cc1C(=O)N1CCN(c2ccccc2)CC1 [Example I-143],10 to 1000,–,> 3000
Cn1cc(CN2CCN(c3ccccc3Cl)CC2)cc1C(=O)N1CCN(c2ccccc2)CC1 [Example I-144],1000 to 3000,–,> 3000
COCCCn1cc(CN2CCN(c3ccccc3Cl)CC2)cc1C(=O)N1CCN(c2ccccc2)CC1 [Example I-145],3000 to 10000,–,> 10000
CCCCn1cc(CN2CCN(c3ccccc3Cl)CC2)cc1C(=O)N1CCN(c2ccccc2)CC1 [Example I-146],3000 to 10000,–,> 10000
O=C(c1cc(CN2CCN(c3ccccc3Cl)CC2)cn1CCCOC1CCCCO1)N1CCN(c2ccccc2)CC1 (stereo not shown) [Example I-147],3000 to 10000,–,> 10000
CC(=O)OCCn1cc(CN2CCN(c3ccccc3Cl)CC2)cc1C(=O)N1CCN(c2ccccc2)CC1 [Example I-148],1000 to 3000,–,> 10000
COCCn1cc(CN2CCN(c3ccccc3)CC2)cc1C(=O)N1CCN(c2ccccc2C#N)CC1 [Example I-149],3000 to 10000,–,> 10000
COCCn1cc(CN2CCN(c3ccccc3C#N)CC2)cc1C(=O)N1CCN(c2ccccc2OC)CC1 [Example I-150],3000 to 10000,–,> 10000
COCCn1cc(CN2CCN(c3ccccc3C#N)CC2)cc1C(=O)N1CCN(c2ccccc2C#N)CC1 [Example I-151],1000 to 3000,–,> 10000
COCCn1cc(CN2CCN(c3ccccc3Cl)CC2)cc1C(=O)N1CCN(c2ccccc2)CC1 [Example I-152],1000 to 3000,–,> 10000
